In US20240174690A1, “ANNULATED 2-AMINO-3-CYANO THIOPHENES AND DERIVATIVES FOR THE TREATMENT OF CANCER” (BOEHRINGER INGELHEIM INTERNATIONAL GMBH, priority 2021, published 2024):

Tests used:
MKN1 cells = test: MKN1 CTG proliferation assay (120 h) (gastric cancer, wt amplified); format: cell-based; details: Homo sapiens, MKN-1, assay 3, CTG 120 h, read-out: MKN1 (assay 3) IC50
Experimental: MKN1 CTG Proliferation Assay (120 h) (Gastric Cancer, Wt Amplified)
MKN1 cells (JCRB0252) are dispensed into white 384-well plates, flat and white bottom (Corning Costar, PNr.: 3570) at a density of 400 cells per well in 50 μL RPMI 1640 (PAN-Biotech, PNr.: P04-18047)+10% FCS (HyClone, PNr.: SH30084.03) (assay 1) or into white 384-well plates, flat and white bottom (Perkin Elmer, 6007680) at a density of 500 cells per well in 40 μl RPMI (Gibco, PNr.: 21875034)+10% FCS (HyClone, PNr.: SH30084.03) (assay 2) or into black 384-well plates, flat and clear bottom (Greiner, PNr. 781091) at a density of 200 cells per well in 60 μl RPMI-1640 (Gibco #A10491)+10% FCS (HyClone, PNr.: SH30084.03)+PenStrep (Gibco, PNr.15140-122) (assay 3). […] Compounds (10 mM stock in DMSO) are added at logarithmic dose series using the HP Digital Dispenser D300 (Tecan) (assay 1+2) or the ECHO acoustic liquid handler system (Beckman Coulter) (assay 3), including DMSO controls and normalizing for added DMSO. Plates are incubated for 120 h, and cell viability is measured using CellTiter-Glo luminescent cell viability reagent (Promega product code G7570). Viability (stated as percent of control) is defined as relative luminescence units RLU of each well divided by the RLU of cells in DMSO controls. IC50 values are determined from viability measurements by non-linear regression using a four-parameter model.

LOVO cells = test: LOVO CTG proliferation assay (120 h) (CRC, G13D); format: cell-based; details: Homo sapiens, CTG 120 h
Experimental: LOVO CTG Proliferation Assay (120 h) (CRC, G13D)
LOVO cells (ATCC CCL-229) are dispensed into 384-well plates, flat and clear bottom (Greiner, PNr. 781091) at a density of 1000 cells per well in 60 μL DMEM (Sigma D6429)+10% Fetal Calf Serum (HyClone, PNr.: SH30084.03) and incubated at 37° C. in a CO2 incubator overnight. The next day, compounds (10 mM stock in DMSO) are added with the ECHO acoustic liquid handler system (Beckman Coulter), including DMSO controls. Plates are incubated for 120 h, and cell viability is measured using CellTiter-Glo luminescent cell viability reagent (Promega product code G7570). Viability (stated as percent of control) is defined as relative luminescence units RLU of each well divided by the RLU of cells in DMSO controls. IC50 values are determined from viability measurements by non-linear regression using a four-parameter model.

[1] = Plasma protein binding assay (PPB), equilibrium dialysis, 10% FCS in PBS; format: in vitro ADME; details: bovine, read-out: PPB 10% FCS (% fu)
Procedure, shortened: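 Test compound (1-10 μmol/L) in 10% FCS in PBS was dialysed for 3-5 h at 37° C versus PBS ± dextran across a semipermeable membrane. LC-MS of both compartments after protein precipitation gave Cserum and Cbuffer, from which the unbound fraction fu was derived.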

| Compound | IC50 (MKN1 cells) [nM] | IC50 (LOVO cells) [nM] | fraction unbound [1] |
| --- | --- | --- | --- |
| CO[C@@H]1C[C@@H]([C@H](C)Oc2cc(-c3ccn(C4COC4)n3)nc(-c3noc4c3CCC[C@@]43CCCc4sc(N)c(C#N)c43)n2)N(C)C1 [II-107] |  | 1010 | 0.24 |
| C[C@H](Oc1cc(-c2ccn(C3COC3)n2)nc(-c2noc3c2CCC[C@@]32CCCc3sc(N)c(C#N)c32)n1)[C@@H]1CCCN1C [II-109] |  | 76 | 0.18 |
| C[C@H](Oc1cc(-n2ccc(Br)n2)nc(-c2noc3c2CCC[C@@]32CCCc3sc(N)c(C#N)c32)n1)[C@@H]1CCCN1C [II-110] |  | 92 | 0.01 |
| C[C@H](O)Cn1ccc(-c2cc(O[C@@H](C)[C@@H]3CCCN3C)nc(-c3noc4c3CCC[C@@]43CCCc4sc(N)c(C#N)c43)n2)n1 [II-112] |  | 58 | 0.41 |
| C[C@H](Oc1cc(-n2cc(Cn3ccnc3)nn2)nc(-c2noc3c2CCC[C@@]32CCCc3sc(N)c(C#N)c32)n1)[C@@H]1CCCN1C [II-113] |  | 123 | 0.39 |
| COC(=O)c1ccc(-c2cc(O[C@@H](C)[C@@H]3CCCN3C)nc(-c3noc4c3CCC[C@@]43CCCc4sc(N)c(C#N)c43)n2)o1 [II-114] | 358 | 142 | 0.07 |
| C[C@H](Oc1cc(-n2ccncc2=O)nc(-c2noc3c2CCC[C@@]32CCCc3sc(N)c(C#N)c32)n1)[C@@H]1CCCN1C [II-116] |  | 8 | 0.35 |
| CNC(=O)c1cn(-c2cc(O[C@@H](C)[C@@H]3CCCN3C)nc(-c3noc4c3CCC[C@@]43CCCc4sc(N)c(C#N)c43)n2)nn1 [II-122] |  | 180 | 0.44 |

More lines, in order of falling IC50 (LOVO cells), values ahead:

| IC50 (MKN1 cells) [nM] | IC50 (LOVO cells) [nM] | fraction unbound [1] | Compound |
| --- | --- | --- | --- |
|  | 993 | 0.2 | Cc1cn(-c2cc(O[C@@H](C)[C@@H]3CCCN3C)nc(-c3noc4c3CCC[C@@]43CCCc4sc(N)c(C#N)c43)n2)nn1 [II-106] |
| 598 | 683 | 0.13 | C[C@H](Oc1cc(-c2cccc(CO)c2)nc(-c2noc3c2CCC[C@@]32CCCc3sc(N)c(C#N)c32)n1)[C@@H]1CCCN1C [II-97] |
|  | 309 | 0.11 | C[C@H](Oc1cc(-c2cnsc2)nc(-c2noc3c2CCC[C@@]32CCCc3sc(N)c(C#N)c32)n1)[C@@H]1CCCN1C [II-111] |
|  | 295 | 0.08 | C[C@H](Oc1cc(-n2cc(C3CC3)nn2)nc(-c2noc3c2CCC[C@@]32CCCc3sc(N)c(C#N)c32)n1)[C@@H]1CCCN1C [II-118] |
| 252 | 152 | 0.04 | C[C@H](Oc1cc(-n2ccc(-c3ccccn3)n2)nc(-c2noc3c2CCC[C@@]32CCCc3sc(N)c(C#N)c32)n1)[C@@H]1CCCN1C [II-119] |
| 426 | 150 | 0.07 | C[C@H](Oc1cc(-n2cncc3ccnc2-3)nc(-c2noc3c2CCC[C@@]32CCCc3sc(N)c(C#N)c32)n1)[C@@H]1CCCN1C [II-105] |
|  | 129 | 0.4 | COCc1cn(-c2cc(O[C@@H](C)[C@@H]3CCCN3C)nc(-c3noc4c3CCC[C@@]43CCCc4sc(N)c(C#N)c43)n2)nn1 [II-121] |
|  | 128 | 0.4 | C[C@H](Oc1cc(-n2cc(Cn3cncn3)nn2)nc(-c2noc3c2CCC[C@@]32CCCc3sc(N)c(C#N)c32)n1)[C@@H]1CCCN1C [II-124] |
|  | 76 | 0.04 | C[C@H](Oc1cc(-n2ccc(C#N)n2)nc(-c2noc3c2CCC[C@@]32CCCc3sc(N)c(C#N)c32)n1)[C@@H]1CCCN1C [II-102] |
|  | 72 | 0.11 | C[C@H](Oc1cc(-n2cc(-c3cccnc3)nn2)nc(-c2noc3c2CCC[C@@]32CCCc3sc(N)c(C#N)c32)n1)[C@@H]1CCCN1C [II-123] |
|  | 58 | 0.19 | C[C@H](Oc1cc(-c2ccn(C[C@@H](C)O)n2)nc(-c2noc3c2CCC[C@@]32CCCc3sc(N)c(C#N)c32)n1)[C@@H]1CCCN1C [II-117] |
